We go through 28 compounds from ChEMBL document CHEMBL3351901 (Bioorg Med Chem, 2014).

Residue numbers refer to the chain shown, from its start.

The IC50 is the concentration that inhibits the measured activity by half.

The target in experiment [1] is T1, Aldo-keto reductase family 1 member C3 (Homo sapiens, UniProt P42330).
T1 sequence (P42330 whole entry): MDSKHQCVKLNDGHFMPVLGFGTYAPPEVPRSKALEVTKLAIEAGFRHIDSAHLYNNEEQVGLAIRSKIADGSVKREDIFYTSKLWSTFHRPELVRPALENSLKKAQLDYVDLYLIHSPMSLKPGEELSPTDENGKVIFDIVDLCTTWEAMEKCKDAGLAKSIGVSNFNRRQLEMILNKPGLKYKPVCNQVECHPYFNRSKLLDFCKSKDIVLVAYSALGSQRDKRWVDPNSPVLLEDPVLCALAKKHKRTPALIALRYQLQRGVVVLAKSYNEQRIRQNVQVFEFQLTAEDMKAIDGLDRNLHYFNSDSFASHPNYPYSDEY
Description: Inhibition of AKR1C3 (unknown origin) assessed as dehydrogenase activity of enzyme by NADPH fluorescence assay

In experiment [2] the target is T2, Aldo-keto reductase family 1 member C1 (Homo sapiens, UniProt Q04828).
T2 sequence (Q04828 whole entry): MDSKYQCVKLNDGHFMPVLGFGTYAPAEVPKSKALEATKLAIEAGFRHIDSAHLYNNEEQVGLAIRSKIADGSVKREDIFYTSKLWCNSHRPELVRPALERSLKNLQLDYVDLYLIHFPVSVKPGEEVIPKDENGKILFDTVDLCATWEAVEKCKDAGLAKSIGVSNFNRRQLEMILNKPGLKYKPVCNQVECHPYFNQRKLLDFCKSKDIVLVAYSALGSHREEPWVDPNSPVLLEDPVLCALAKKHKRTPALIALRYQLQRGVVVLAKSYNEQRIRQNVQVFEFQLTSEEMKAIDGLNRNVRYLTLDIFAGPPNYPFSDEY
Nature of the experiment: Inhibition of AKR1C1 (unknown origin) assessed as dehydrogenase activity of enzyme by NADPH fluorescence assay.

Experiment [3] addresses T3, Aldo-keto reductase family 1 member C2 (Homo sapiens, UniProt P52895).
T3 sequence (P52895 whole entry): T2 sequence (Q04828 whole entry) with T38V, R47H, L54V, C87S, V151M, R170H, Q172L
The experiment in a line: Inhibition of AKR1C2 (unknown origin) assessed as dehydrogenase activity of enzyme by NADPH fluorescence assay.

Experiment [4] concerns the target T4, Aldo-keto reductase family 1 member C4 (Homo sapiens, UniProt P17516).
T4 sequence (P17516 whole entry): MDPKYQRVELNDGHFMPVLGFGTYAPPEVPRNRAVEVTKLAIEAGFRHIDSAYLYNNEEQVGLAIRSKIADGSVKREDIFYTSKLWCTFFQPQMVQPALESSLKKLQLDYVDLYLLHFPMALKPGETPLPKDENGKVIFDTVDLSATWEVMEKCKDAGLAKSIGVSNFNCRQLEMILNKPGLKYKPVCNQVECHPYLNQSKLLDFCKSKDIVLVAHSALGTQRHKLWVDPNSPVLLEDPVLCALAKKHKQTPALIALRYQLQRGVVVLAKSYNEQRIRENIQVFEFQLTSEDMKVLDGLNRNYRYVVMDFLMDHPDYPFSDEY
The experiment in a line: Inhibition of AKR1C4 (unknown origin) assessed as dehydrogenase activity of enzyme by NADPH fluorescence assay.

For experiment [5], the target named is T1, Aldo-keto reductase family 1 member C3. Nature of the experiment: Inhibition of AKR1C3-mediated androsterone metabolism in human A549 cells assessed as 5alpha-androstane-3alpha, 17beta-diol after 24 hrs by LC/MS analysis. The class given is cell-based.

Regarding `O=C(O)/C=C/c1ccc(OC(=O)CCc2ccccc2)c(OCc2cc(F)cc(F)c2)c1`, in experiment [1], the IC50 is 360 nM. On the same count and under the same terms, for `C/C=C/COc1cc(/C=C/C(=O)O)ccc1OC(=O)CCc1ccccc1` the value was 1100 nM; for `Cc1ccc(COc2cc(/C=C/C(=O)O)ccc2OC(=O)CCc2cccc(F)c2)cc1`, 160 nM; for `CC(C)Oc1cc(/C=C/C(=O)O)ccc1OC(=O)CCc1ccccc1`, 3100 nM. `CC(C)COc1cc(/C=C/C(=O)O)ccc1OC(=O)CCc1ccccc1` came in with a concentration for half-maximal inhibition (IC50) in experiment [1] of 560 nM.

In experiment [1], `CCCCOc1cc(/C=C/C(=O)O)ccc1OC(=O)CCc1ccccc1` yielded an IC50 of 420 nM. The same measure, in the same setting: for `O=C(O)/C=C/c1ccc(OC(=O)CCc2ccc(O)cc2)c(OCc2cccc(F)c2)c1` the value was 840 nM; for `O=C(O)/C=C/c1ccc(OC(=O)CCc2ccccc2)c(OCc2ccccc2)c1`, 390 nM; for `O=C(O)/C=C/c1ccc(OC(=O)CCc2c(F)cc(F)cc2F)c(OCc2cccc(F)c2)c1`, 580 nM.

Regarding `Cc1ccc(COc2cc(/C=C/C(=O)O)ccc2OC(=O)CCc2c(F)cc(F)cc2F)cc1`, in experiment [1], the IC50 was found to be 540 nM. On the same count and under the same terms, for `Cc1ccc(COc2cc(/C=C/C(=O)O)ccc2OC(=O)CCc2ccc(O)cc2)cc1` the value was 770 nM; for `COc1cc(/C=C/C(=O)O)ccc1OC(=O)CCc1ccccc1`, 4500 nM. Still for that read-out and setting: to `O=C(O)/C=C/c1ccc(OC(=O)CCc2ccc(F)cc2)c(OCc2cccc(F)c2)c1` belongs 540 nM. On the same count and under the same terms, for `O=C(O)/C=C/c1ccc(OC(=O)CCc2ccccc2)c(OCc2cccc(F)c2)c1` the value was 110 nM; for `CCCOc1cc(/C=C/C(=O)O)ccc1OC(=O)CCc1ccccc1`, 2200 nM.

In turn, `O=C(O)/C=C/c1ccc(OC(=O)CCc2ccccc2)c(OCc2ccccc2F)c1` displayed an IC50 in experiment [1] of 320 nM. For the compound `O=C(O)/C=C/c1ccc(OC(=O)CCc2ccccc2)c(OCc2cccc(O)c2)c1`, the half-inhibitory concentration (IC50) is 81000 nM in experiment [2]; above 100000 nM in experiment [3]; 20000 nM in experiment [4]; 8000 nM in experiment [5]; 20 nM in experiment [1].

For `Cc1ccc(COc2cc(/C=C/C(=O)O)ccc2OC(=O)CCc2cccc(O)c2)cc1`, the IC50 in experiment [1] stood at 910 nM.

In turn, `O=C(O)/C=C/c1ccc(OC(=O)CCc2cccc(F)c2)c(OCc2cccc(F)c2)c1` came in with an IC50 in experiment [1] of 400 nM.

Turning to `O=C(O)/C=C/c1ccc(OC(=O)CCc2ccccc2)c(OCc2ccc(F)cc2)c1`, the IC50 in experiment [1] came to 220 nM. Consider `Cc1ccc(COc2cc(/C=C/C(=O)O)ccc2OC(=O)CCc2ccccc2)cc1`, for which, in experiment [1], the IC50 was determined as 110 nM. Same read-out and setting: for `O=C(O)/C=C/c1ccc(OC(=O)CCc2cccc(O)c2)c(OCc2cccc(F)c2)c1` the value was 800 nM; for `O=C(O)/C=C/c1ccc(OC(=O)CCc2ccccc2)c(OCCc2ccccc2)c1`, 570 nM; for `CCOc1cc(/C=C/C(=O)O)ccc1OC(=O)CCc1ccccc1`, 970 nM. `COc1cccc(COc2cc(/C=C/C(=O)O)ccc2OC(=O)CCc2ccccc2)c1`: the half-inhibitory concentration (IC50) was above 100000 nM in experiment [2], above 100000 nM in experiment [3], above 100000 nM in experiment [4] and 960 nM in experiment [1].

The compound `C=C(C)COc1cc(/C=C/C(=O)O)ccc1OC(=O)CCc1ccccc1` yielded an IC50 in experiment [1] of 850 nM. On the same count and under the same terms, to `Cc1ccc(COc2cc(/C=C/C(=O)O)ccc2OC(=O)CCc2ccc(F)cc2)cc1` belongs 470 nM; to `O=C(O)/C=C/c1ccc(OC(=O)CCc2ccccc2)c(OCc2ccc(Cl)cc2)c1`, 890 nM.
